From PMC6052345, “Functional Analysis of the Chemosensory Protein MsepCSP8 From the Oriental Armyworm Mythimna separata” (Frontiers in Physiology, 2018)
Where two headings read alike, the source gives them in different places.

Experiments:
MsepCSP8 = MsepCSP8 (Mythimna separata, UniProt A0A1V1WC03); assay: Fluorescence competitive binding assay with 1-NPN as fluorescent probe; conditions: for IC50: displacement of 1-NPN; for Ki: calculated from IC50; for binding affinity to MsepCSP8 in words: discussion of Table 1, pH not stated; for Kd: dissociation constant, saturation and Scatchard plot
Procedure: The expressed protein was obtained in soluble form in the supernatant, and purification was accomplished using a Ni affinity chromatography column (GE Healthcare, Uppsala, Sweden). Bound protein was eluted by digestion with recombinant bovine enterokinase at 26°C for 15 h to remove the His-tag. Expression and purification were verified by 15% sodium dodecyl sulfate-polyacrylamide gel electrophoresis (SDS-PAGE), and protein concentration was measured as described by [Cao et al. (2017)]. Dialysis of purified protein was carried out in 30 mM Tris-HCl buffer [Tris(hydroxymethyl)aminomethane] at pH 7.4 and pH 5.0 before fluorescence binding assays, and protein was stored at -80°C until use.
Fluorescence competitive binding assays were performed to determine the binding affinity of MsepCSP8 for 56 ligands using N-phenyl-1-naphthylamine (1-NPN) as a fluorescent probe. Stock solutions of ligands were prepared in spectrophotometric-grade methanol. […] Mixtures of 1-NPN and protein were excited at 337 nm wavelength, and emission spectra were recorded from 360 to 600 nm using a fluorescence spectrophotometer (RF-5301PC Shimadzu, Kyoto, Japan). Binding of selected ligands with MsepCSP8 (1:1 protein:ligand stoichiometry) was evaluated using 1-NPN as a fluorescent probe, with the final concentration of the product ranging from 0 to 20 μM. […] Three independent measurements were made for all experiments. The binding affinity (Ki) of MsepCSP8 for all tested ligands was calculated based on IC50 values as follows:
Ki=IC50/(1 + [1−NPN]/K1–NPN)
where [1-NPN] is the free concentration of 1-NPN, and K1-NPN is the dissociation constant of the complex of MsepCSP8 and 1-NPN.

Mythimna separata = assay: Y-tube olfactometer bioassay (before RNAi); assay type: in vivo
Description: Mythimna separata behavioral responses were examined by olfactometer bioassays ([Cao et al., 2015]) performed in a glass Y-tube (base = 4.0 cm diameter by 25 cm length, arms = 3.0 cm diameter by 26 cm length) using 10 different volatile compounds (Sigma-Aldrich).
Air entering the tube was passed through activated charcoal for filtration and humidified using deionised water. Filtered air was split between two chambers; one chamber containing liquid paraffin (used as control) and the other containing the test volatile. Each chamber was connected to one arm of the Y-tube. Airflow was kept constant at 6.0 l min^-1 throughout the experiment using an inline flow meter (Gilmont Instr., Barnant Co., Barrington, IL, United States). Orange light was used for this experiment. The whole experiment was conducted in a dark room, and the relative humidity and temperature were maintained at 70 ± 5% and 25 ± 1°C, respectively. A 10 μl of volatile compound was applied to 10 mm × 10 mm filter papers (Whatman No. 1) that was placed in the chamber connected to one arm of the Y-tube. A separate Y-tube was used for male and female moths.
To perform bioassays, a 3-day-old moth, either male or female, was released in the base of the Y-tube. Each insect was given 10 min to respond to the treatment, and the number of moths showing attraction, repulsion or no response was counted. Approximately 30 min before onset of the trial, male and female adults were placed into separate glass tubes (50 ml) and covered with a cotton plug to avoid exposure to tested volatiles. In total, 60 adults (30 male and 30 female) were tested per volatile compound, and χ^2 tests were applied to evaluate the number of M. separata individuals attracted to or repelled by volatiles.

MsepCSP8, sequence (A0A1V1WC03 entry or part of it): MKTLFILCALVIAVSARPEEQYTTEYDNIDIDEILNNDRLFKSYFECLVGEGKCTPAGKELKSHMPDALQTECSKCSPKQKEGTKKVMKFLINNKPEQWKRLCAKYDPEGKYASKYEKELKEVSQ

| Compound | IC50 (MsepCSP8; IC50, pH 5.0) | IC50 (MsepCSP8; IC50, pH 7.4) | Ki (MsepCSP8; Ki, pH 5.0) | Ki (MsepCSP8; Ki, pH 7.4) | IC50 (MsepCSP8; pH 5.0, read-out: IC50) | Ki (MsepCSP8; pH 7.4, read-out: Ki) | IC50 (MsepCSP8; pH 7.4, read-out: IC50) | other results |
| --- | --- | --- | --- | --- | --- | --- | --- | --- |
| C=CC(C)(O)CCC=C(C)CCC=C(C)C (mixture of isomers) [Nerolidol] | 15.4 µM | 15 µM | 11.5 µM | 10.5 µM | – | – | – | – |
| CC1=CCC2C(C1)C2(C)C (single isomer, unassigned; (+)) [(+)-3-Carene] | – | – | – | – | 17.7 µM | 9.42 µM | 13.4 µM | binding affinity to MsepCSP8 in words (MsepCSP8): high binding affinities; Ki (MsepCSP8; pH 5.0, read-out: Ki): 13.2 µM |
| CC1(C)CCC[C@@]2(C)[C@@H]3CC4C([C@@H]31)C42C (single isomer, unassigned; (+)) [(+)-Longicyclene] | – | – | – | – | 395 µM | 28.2 µM | 40.1 µM | Ki (MsepCSP8; pH 5.0, read-out: Ki): 295 µM |
| C=C(C)C1CCC2(C)OC2C1 (single isomer, unassigned; (-)) [(–)-Limonene oxide] | – | – | – | – | 46.9 µM | 12.3 µM | 17.5 µM | Ki (MsepCSP8; pH 5.0, read-out: Ki): 35 µM |
| c1ccc(Nc2cccc3ccccc23)cc1 [1-NPN, N-phenyl-1-naphthylamine, reference compound] | – | – | – | – | – | – | – | Kd (MsepCSP8; pH 5.0): 2.93 µM; Kd (MsepCSP8; pH 7.4): 2.41 µM |
| C=CC(O)CCCCC (centres unmarked) [1-Octen-3-ol] | 13.2 µM | 8.25 µM | 9.88 µM | 5.79 µM | – | – | – | binding affinity to MsepCSP8 in words (MsepCSP8): bound strongly |
| CCCCCC(C)O (centres unmarked) [2-Heptanol] | 25.6 µM | 23.8 µM | 19.1 µM | 16.7 µM | – | – | – | – |
| CCC(C)C=O (centres unmarked) [2-Methylbutyraldehyde] | 21.4 µM | 13.8 µM | 16 µM | 9.66 µM | – | – | – | binding affinity to MsepCSP8 in words (MsepCSP8): high affinities |
| CCCCCCCCCC(C)=O [2-Undecanone] | 22.3 µM | 35.5 µM | 16.6 µM | 24.9 µM | – | – | – | – |
| CCC(O)CC [3-Pentanol] | 17.3 µM | 16 µM | 12.9 µM | 11.3 µM | – | – | – | – |
| Cc1ccc(C(C)C)cc1 [4-Isopropyltoluene] | 7.72 µM | 18 µM | 5.76 µM | 12.6 µM | – | – | – | – |
| CC1=CC[C@@H]2[C@@H]3[C@H]1[C@@]2(C)CCCC3(C)C [(+)-α-longipinene] | – | – | – | – | 14.4 µM | 9.86 µM | 14.1 µM | binding affinity to MsepCSP8 in words (MsepCSP8): high binding affinities; Ki (MsepCSP8; pH 5.0, read-out: Ki): 10.8 µM |
| C=C1CC[C@@H]2C[C@H]1C2(C)C [(R)-(+)-β-pinene] | – | – | – | – | 26.4 µM | 9.73 µM | 13.9 µM | binding affinity to MsepCSP8 in words (MsepCSP8): high binding affinities; Ki (MsepCSP8; pH 5.0, read-out: Ki): 19.7 µM |
| CC1=CC(=O)[C@H]2C[C@@H]1C2(C)C [(S)-(-)-verbenone] | – | – | – | – | 21.5 µM | 9.27 µM | 13.2 µM | binding affinity to MsepCSP8 in words (MsepCSP8): high binding affinities; Ki (MsepCSP8; pH 5.0, read-out: Ki): 16.1 µM |
| C=C1CC[C@H]2O[C@]2(C)CC[C@@H]2[C@@H]1CC2(C)C [(–)-Caryophyllene oxide] | 10.3 µM | 19.6 µM | 7.67 µM | 13.7 µM | – | – | – | – |
| CC/C=C\CCO [Cis-3-hexen-1-ol] | 29.8 µM | 21.4 µM | 22.3 µM | 15 µM | – | – | – | – |
| CC/C=C\CCOC(C)=O [Cis-3-hexenyl acetate] | 24.6 µM | 21 µM | 18.4 µM | 14.8 µM | – | – | – | – |
| OC1CCCCC1 [Cyclohexanol] | – | – | – | – | – | – | – | behavioral response in words (Mythimna separata; male and female moths): distinct preference |
| CCCCCCCCCC=O [Decanal] | 31 µM | 20.4 µM | 23.2 µM | 14.3 µM | – | – | – | – |
| CCCCCCCCCCCC=O [Dodecyl aldehyde] | – | – | – | – | 36.9 µM | 17.3 µM | 24.6 µM | Ki (MsepCSP8; pH 5.0, read-out: Ki): 27.5 µM |
| CCC/C=C/COC(C)=O [E-2-Hexen-1-ol acetate] | 62.8 µM | 14.6 µM | 46.9 µM | 10.2 µM | – | – | – | – |
| CCCCCCCCCCCCCCCCCCCC [Eicosane] | 46.3 µM | 48 µM | 34.6 µM | 33.7 µM | – | – | – | – |
| CCOC(C)=O [Ethyl acetate] | 29.2 µM | 67.3 µM | 21.8 µM | 47.2 µM | – | – | – | – |

| Compound | IC50 (MsepCSP8; IC50, pH 5.0) | IC50 (MsepCSP8; IC50, pH 7.4) | Ki (MsepCSP8; Ki, pH 5.0) | Ki (MsepCSP8; Ki, pH 7.4) | IC50 (MsepCSP8; pH 5.0, read-out: IC50) | Ki (MsepCSP8; pH 7.4, read-out: Ki) | IC50 (MsepCSP8; pH 7.4, read-out: IC50) | other results |
| --- | --- | --- | --- | --- | --- | --- | --- | --- |
| CC12CCC(CC1)C(C)(C)O2 [Eucalyptol] | 88.1 µM | 25.2 µM | 65.7 µM | 17.7 µM | – | – | – | – |
| CCCCCCCCCCCCCCCC [Hexadecane] | 10.3 µM | 14.8 µM | 7.65 µM | 10.4 µM | – | – | – | – |
| CCCCCC [Hexane] | 26.3 µM | 9.69 µM | 19.6 µM | 6.8 µM | – | – | – | binding affinity to MsepCSP8 in words (MsepCSP8): bound highly |
| C=CC(C)(O)CCC=C(C)C (centres unmarked) [Linalool] | 25 µM | 14.5 µM | 18.7 µM | 10.1 µM | – | – | – | – |
| COC(=O)c1ccccc1 [Methyl benzoate] | 21.2 µM | 12.5 µM | 15.8 µM | 8.8 µM | – | – | – | binding affinity to MsepCSP8 in words (MsepCSP8): bound highly |
| C=CC(=C)CCC=C(C)C [Myrcene] | 17.4 µM | 16.6 µM | 13 µM | 11.6 µM | – | – | – | – |
| CCCCCCCCCCCCCCCCCCC [Nonadecane] | 19.8 µM | 25.1 µM | 14.8 µM | 17.6 µM | – | – | – | – |
| CCCCCCCCC=O [Nonanal] | 14.9 µM | 12.7 µM | 11.1 µM | 8.92 µM | – | – | – | binding affinity to MsepCSP8 in words (MsepCSP8): high affinities |
| C=CC(C)=CCC=C(C)C [Ocimene] | – | – | – | – | 15.6 µM | 11.7 µM | 16.7 µM | Ki (MsepCSP8; pH 5.0, read-out: Ki): 11.6 µM |
| CCCCCCCC [Octane] | 15.9 µM | 37 µM | 11.8 µM | 26 µM | – | – | – | – |
| CCCCCCCCCCCCCCCCCCCCCCCCC [Pentacosane] | 11.2 µM | 24.4 µM | 8.36 µM | 17.1 µM | – | – | – | – |
| C=C(C)[C@H]1CC=C(C)CC1 [R-(+)-Limonene] | – | – | – | – | 18.9 µM | 16.5 µM | 23.5 µM | Ki (MsepCSP8; pH 5.0, read-out: Ki): 14.1 µM |
| CCCCCCCCCCCCCC [Tetradecane] | 23.8 µM | 17.9 µM | 17.8 µM | 12.6 µM | – | – | – | – |
| CCC/C=C/CO [Trans-2-hexen-1-ol] | 8.46 µM | 23.8 µM | 6.31 µM | 16.7 µM | – | – | – | binding affinity to MsepCSP8 in words (MsepCSP8): bound strongly |
| CCCCCCCCCCCCCCCCCCCCC [n-Heneicosane] | 36.5 µM | 9.59 µM | 27.2 µM | 6.73 µM | – | – | – | binding affinity to MsepCSP8 in words (MsepCSP8): bound highly |
| C/C1=C\CC/C(C)=C/CC(C)(C)/C=C/C1 [α-Humulene] | – | – | – | – | 23.1 µM | 13 µM | 18.5 µM | Ki (MsepCSP8; pH 5.0, read-out: Ki): 17.2 µM |
| CC1=CC=C(C(C)C)CC1 [α-Terpinene] | – | – | – | – | – | – | – | behavioral response (attraction) of females (Mythimna separata; 3-day-old female moths, 10 μl volatile vs liquid paraffin): 70%; behavioral response (attraction) of males (Mythimna separata; 3-day-old male moths, 10 μl volatile vs liquid paraffin): 66% |
| CC(=O)/C=C/C1=C(C)CCCC1(C)C [β-Lonone] | 22.8 µM | 10.3 µM | 17 µM | 7.22 µM | – | – | – | binding affinity to MsepCSP8 in words (MsepCSP8): high affinity |
| (+)-Fenchone | – | – | – | – | 20 µM | 20.8 µM | 29.7 µM | Ki (MsepCSP8; pH 5.0, read-out: Ki): 14.9 µM |
| (–)-Isolongifolene | – | – | – | – | 61.6 µM | 17.3 µM | 24.6 µM | Ki (MsepCSP8; pH 5.0, read-out: Ki): 46 µM |
| (–)-Limonene | – | – | – | – | 15.1 µM | 28.4 µM | 40.4 µM | Ki (MsepCSP8; pH 5.0, read-out: Ki): 11.2 µM |
| Farnesene | – | – | – | – | 20.2 µM | 13.1 µM | 18.6 µM | – |
